# Measurements as given in patent US7670613B2, “Androgen modulators” (Pfizer Inc., priority 2004, dated 2010).
# Target: T1, hAR (Homo sapiens, UniProt P10275)
# T1 construct: made in house; host or cells: baculovirus/Sf9 insect cells
# T1 sequence (P10275 1-920): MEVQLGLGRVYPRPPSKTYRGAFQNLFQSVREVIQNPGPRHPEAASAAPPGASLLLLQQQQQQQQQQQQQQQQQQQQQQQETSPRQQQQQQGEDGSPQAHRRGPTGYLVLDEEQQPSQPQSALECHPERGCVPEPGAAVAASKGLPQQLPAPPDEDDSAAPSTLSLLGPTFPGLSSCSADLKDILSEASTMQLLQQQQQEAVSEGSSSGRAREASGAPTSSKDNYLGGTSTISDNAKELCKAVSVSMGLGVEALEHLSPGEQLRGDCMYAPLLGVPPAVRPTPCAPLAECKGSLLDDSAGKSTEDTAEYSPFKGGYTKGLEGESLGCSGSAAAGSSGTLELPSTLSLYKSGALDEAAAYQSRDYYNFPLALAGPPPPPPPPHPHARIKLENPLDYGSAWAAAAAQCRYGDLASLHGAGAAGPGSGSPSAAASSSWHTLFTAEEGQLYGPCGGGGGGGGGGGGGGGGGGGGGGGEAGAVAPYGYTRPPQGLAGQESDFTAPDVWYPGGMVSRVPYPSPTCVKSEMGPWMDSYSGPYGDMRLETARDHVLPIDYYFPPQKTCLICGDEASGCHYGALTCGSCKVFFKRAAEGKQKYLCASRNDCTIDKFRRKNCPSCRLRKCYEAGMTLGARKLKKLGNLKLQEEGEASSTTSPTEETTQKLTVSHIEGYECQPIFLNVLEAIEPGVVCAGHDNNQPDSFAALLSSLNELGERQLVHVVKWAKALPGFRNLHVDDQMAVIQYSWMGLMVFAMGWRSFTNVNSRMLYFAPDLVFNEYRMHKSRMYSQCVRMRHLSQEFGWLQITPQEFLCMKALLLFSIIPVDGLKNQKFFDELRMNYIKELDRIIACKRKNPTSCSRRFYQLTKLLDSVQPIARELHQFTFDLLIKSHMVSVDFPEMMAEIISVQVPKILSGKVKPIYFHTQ
# Assay: Competitive binding analysis on baculovirus/Sf9 generated hAR extracts with 3H-DHT tracer
# Conditions: AR Binding IC50, hAR extract, 1 nM 3H-DHT, one hour at 4° C.; mean of multiple tests
# Method: The description below describes how the assay was carried out.
# Competitive binding analysis was performed on baculovirus/Sf9 generated hAR extracts in the presence or absence of different concentrations of test agent and a fixed concentration of ^3H-dihydrotestosterone (^3H-DHT) as tracer. This binding assay method is a modification of a protocol previously described (Liao S., et. al. J. Steroid Biochem. 20:11-17 1984). Briefly, progressively decreasing concentrations of compounds are incubated in the presence of hAR extract (Chang et al. P.N.A.S. Vol. 89, pp. […], 1992), hydroxylapatite, and 1 nM ^3H-DHT for one hour at 4° C. Subsequently, the binding reactions are washed three times to completely remove excess unbound ^3H-DHT. hAR bound ^3H-DHT levels are determined in the presence of compounds (i.e. competitive binding) and compared to levels bound when no competitor is present (i.e. maximum binding). Compound binding affinity to the hAR is expressed as the concentration of compound at which one half of the maximum binding is inhibited.
row,Compound,IC50 [nM]
1,"N#Cc1ccc(OC2CCCCC2c2ccccc2)cc1Cl (centres unmarked) [Example 29, 2-Chloro-4-(2-phenyl-cyclohexyloxy)-benzonitrile]",89
2,"CC1CCCC(Oc2ccc(C#N)c(Cl)c2)C1C (centres unmarked) [Example 20, 2-Chloro-4-(2,3-dimethyl-cyclohexyloxy)-benzonitrile]",227
3,"CO[C@H]1CCC[C@@H]1Oc1ccc(C#N)c(Cl)c1 (relative stereo) [Example 35, 2-Chloro-4-(trans-2-methoxy-cyclopentyloxy)-benzonitrile]",97
4,"N#Cc1ccc(O[C@@H]2CCCC[C@@H]2c2ccccc2)cc1Cl [Example 56, (1R,2R)-2-Chloro-4-(2-phenyl-cyclohexyloxy)-benzonitrile]",366
5,"C[C@H]1CCCC[C@@H]1Oc1ccc(C#N)c(Cl)c1 [Example 30, 2-Chloro-4-(2-(S)-methyl-(S)-cyclohexyloxy)-benzonitrile]",24
6,"CO[C@@H]1CCCC[C@H]1Oc1ccc(C#N)c(Cl)c1 (relative stereo) [Example 39, 2-Chloro-4-(trans-2-methoxy-cyclohexyloxy)-benzonitrile]",76
7,"CC1CCCCC1Oc1ccc(C#N)c(Cl)c1 (centres unmarked) [Example 28, 2-Chloro-4-(2-methyl-cyclohexyloxy)-benzonitrile]",49
8,"N#Cc1ccc(O[C@@H]2CCCC[C@H]2c2ccccc2)cc1Cl [Example 58, (1R,2S) 2-Chloro-4-(2-phenyl-cyclohexyloxy)-benzonitrile]",278

# Same assay, conditions: hAR extract, 1 nM 3H-DHT, one hour at 4° C.; mean of multiple tests; read-out: AR Binding IC50
row,Compound,IC50 [nM]
1,"CC1CCC(Oc2ccc(C#N)c(Cl)c2)CC1C (centres unmarked) [Example 51, 2-Chloro-4-(3,4-dimethyl-cyclohexyloxy)-benzonitrile]",442
2,"C[C@@H]1CCC[C@H](Oc2ccc(C#N)c(Cl)c2)C1 [Example 48, (1S,3R)-2-Chloro-4-(3-methyl-cyclohexyloxy)-benzonitrile]",218
3,"COC1CCC(Oc2ccc(C#N)c(C(F)(F)F)c2)CC1 (centres unmarked) [Example 15, 4-(4-Methoxy-cyclohexyloxy)-2-trifluoromethyl-benzonitrile]",243
4,"C=CCO[C@H]1CCC[C@H]1Oc1ccc(C#N)c(Cl)c1 (relative stereo) [Example 37, 4-(cis-2-Allyloxy-cyclopentyloxy)-2-chloro-benzonitrile]",134
5,"C[C@H]1CC(Oc2ccc(C#N)c(Cl)c2)C[C@H](C)C1 (stereo partly drawn) [Example 65, (3R,5R)-2-Chloro-4-(trans)-(3,5-dimethyl-cyclohexyloxy)-benzonitrile]",437
6,"CC(C)[C@H]1CC[C@H](C)C[C@@H]1Oc1ccc(C#N)cc1Cl [Example 61, (1S,2R,5S)-3-Chloro-4-(2-isopropyl-5methyl-cyclohexyloxy)-benzonitrile]",257
7,"C[C@@H]1CCC[C@H]1Oc1ccc(C#N)cc1Cl [Example 66, (1R,2R)-3-Chloro-4-(2-methyl-cyclopentyloxy)-benzonitrile]",402
8,"C[C@H]1CCC[C@@H]1Oc1ccc(C#N)c(C(F)(F)F)c1 [Example 17, (1S,2S)-4-(2-Methyl-cyclopentyloxy)-2-trifluoromethyl-benzonitrile]",252
9,"C[C@H]1CCC[C@@H]1Oc1ccc(C#N)c(C(F)(F)F)c1 (relative stereo) [Example 2, 4-(trans-2-Methyl-cyclopentyloxy)-2-trifluoromethyl-benzonitrile]",153
10,"C[C@@H]1CCC[C@H](Oc2ccc(C#N)cc2Cl)C1 [Example 60, (1S,3R)3-Chloro-4-(3-methyl-cyclohexyloxy)-benzonitrile]",388
11,"CC1CCCC(Oc2ccc(C#N)cc2Cl)C1C (centres unmarked) [Example 63, 3-Chloro-4-(2,3-dimethyl-cyclohexyloxy)-benzonitrile]",374
12,"C[C@@H]1CCCC[C@H]1Oc1ccc(C#N)cc1Cl [Example 42, (1R,2R)-3-Chloro-4-(2-methyl-cyclohexyloxy)benzonitrile]",343
13,"N#Cc1ccc(OC2CCC2)cc1C(F)(F)F [Example 18, 4-Cyclobutoxy-2-trifluoromethyl-benzonitrile]",466
14,"C[C@H]1CC[C@@H](Oc2ccc(C#N)c(Cl)c2)CC1 [Example 54, (1S,4S)-2-Chloro-4-(4-methyl-cyclohexyloxy)-benzonitrile]",356
15,"CC1(C)CC(Oc2ccc(C#N)cc2Cl)CC(C)(C)C1 [Example 44, 3-Chloro-4-(3,3,5,5-tetramethyl-cyclohexyloxy)-benzonitrile]",410
16,"CC1CCCC(Oc2ccc(C#N)c(C(F)(F)F)c2)C1C (centres unmarked) [Example 6, 4-(2,3-Dimethyl-cyclohexyloxy)-2-trifluoromethyl-benzonitrile]",356
17,"C[C@H]1CC[C@H](Oc2ccc(C#N)cc2Cl)CC1 [Example 59, (1S,4R)-3-Chloro-4-(4-methyl-cyclohexyloxy)-benzonitrile]",341
18,"N#Cc1ccc(OC2CCCCCC2)cc1C(F)(F)F [Example 5, 4-cycloheptyloxy-2-trifluoromethyl-benzonitrile]",319
19,C[C@H]1CC[C@@H](Oc2ccc(C#N)c(C(F)(F)F)c2)CC1 [Example 16],479
20,"C=C(C)[C@H]1CC[C@H](C)[C@@H](Oc2ccc(C#N)c(C(F)(F)F)c2)C1 [Example 13, (1S,2S,5S)-4-(5-Isopropenyl-2-methyl-cyclohexyloxy)-2-trifluoromethyl-benzonitrile]",102
21,"C=CCO[C@H]1CCC[C@@H]1Oc1ccc(C#N)c(Cl)c1 (relative stereo) [Example 38, 4-(trans-2-Allyloxy-cyclopentyloxy)-2-chloro-benzonitrile]",120
